Assay results: PubChem BioAssay AID330 (DTP/NCI, 2004)
Several values for one entry are separate records, joined by “and”; a condition that tells them apart may be missing. Equal entries are not always repeated. Toxic doses and inconclusive results are not listed.

Tested on: P388 leukemia ip, CD2F1 mice, survival T/C
Assay: NCI In Vivo Anticancer Drug Screen. Data for tumor model P388 Leukemia (intraperitoneal) in CD2F1 (CDF1) mice
Settings: endpoint: median survival time, higher = longer survival
Summary of the method: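 Mice carrying the transplanted tumor received test compound or vehicle. Survival was recorded in each group, and the value is the treated-group measurement divided by that of the vehicle-treated control group.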

[1] = dose: 60.0 mg/kg/injection, schedule: Q01DX005 (ip), vehicle: Klucel (hydroxypropylcellulose) (HPC)
[2] = dose: 60.0 mg/kg/injection, schedule: Q01DX005 (ip), vehicle: saline

With `CCCOc1ccc2c(NCCCCNc3c4ccccc4nc4cc(OCCC)ccc34)c3ccccc3nc2c1` the T/C (dose: 0.62 mg/kg/injection, schedule: Q01DX009 (ip), vehicle: other) was 98 % of control, the T/C (dose: 1.25 mg/kg/injection, schedule: Q01DX009 (ip), vehicle: other) was 109 % of control and the T/C (dose: 2.5 mg/kg/injection, schedule: Q01DX009 (ip), vehicle: other) was 98 % of control. For the same compound, the T/C (dose: 5.0 mg/kg/injection, schedule: Q01DX009 (ip), vehicle: other) was 107 % of control and the T/C (dose: 10.0 mg/kg/injection, schedule: Q01DX009 (ip), vehicle: other) was 107 % of control.
With `CC(C)=NNC1=NC(C)(C)P(=O)(NNc2ncccn2)S1` (stereo not drawn) the T/C (dose: 15.0 mg/kg/injection, schedule: Q01DX005 (ip), vehicle: Klucel (hydroxypropylcellulose) (HPC)) was 107 % of control, the T/C (dose: 30.0 mg/kg/injection, schedule: Q01DX005 (ip), vehicle: Klucel (hydroxypropylcellulose) (HPC)) was 105 % of control and the T/C [1] was 93 % of control. For the same compound, the T/C [2] was 98 % of control.
In the case of `C=C1CCN(c2ccc(OCC)cc2)C1=O`, the T/C (dose: 4.0 mg/kg/injection, schedule: Q01DX009 (ip), vehicle: saline + alcohol) is reported as 102 % of control and 113 % of control and 94 % of control, the T/C (dose: 8.0 mg/kg/injection, schedule: Q01DX009 (ip), vehicle: saline + alcohol) is reported as 101 % of control and 108 % of control and 91 % of control and the T/C (dose: 16.0 mg/kg/injection, schedule: Q01DX009 (ip), vehicle: saline + alcohol) is reported as 100 % of control and 91 % of control. For the same compound, the T/C (dose: 32.0 mg/kg/injection, schedule: Q01DX009 (ip), vehicle: saline + alcohol) was 106 % of control and 111 % of control and 94 % of control and the T/C (dose: 64.0 mg/kg/injection, schedule: Q01DX009 (ip), vehicle: saline + alcohol) was 100 % of control and 108 % of control and 95 % of control.
In the case of `C1CN(P2(N3CC3)=NP(N3CC3)(N3CC3)=NP(N3CC3)(N3CC3)=N2)CCO1` (stereo not drawn), the T/C (dose: 3.13 mg/kg/injection, schedule: Q01DX009 (ip), vehicle: saline) is reported as 123 % of control, the T/C (dose: 4.0 mg/kg/injection, schedule: Q01DX009 (ip), vehicle: saline) is reported as 161 % of control and the T/C (dose: 6.25 mg/kg/injection, schedule: Q01DX009 (ip), vehicle: saline) is reported as 157 % of control. For the same compound, the T/C (dose: 8.0 mg/kg/injection, schedule: Q01DX009 (ip), vehicle: saline) was 212 % of control, the T/C (dose: 12.5 mg/kg/injection, schedule: Q01DX009 (ip), vehicle: saline) was 183 % of control and the T/C (dose: 16.0 mg/kg/injection, schedule: Q01DX009 (ip), vehicle: saline) was 174 % of control. For the same compound, the T/C (dose: 25.0 mg/kg/injection, schedule: Q01DX009 (ip), vehicle: saline) was 215 % of control, the T/C (dose: 32.0 mg/kg/injection, schedule: Q01DX009 (ip), vehicle: saline) was 235 % of control and the T/C (dose: 50.0 mg/kg/injection, schedule: Q01DX009 (ip), vehicle: saline) was 104 % of control. For the same compound, the T/C (dose: 64.0 mg/kg/injection, schedule: Q01DX009 (ip), vehicle: saline) was 108 % of control and the T/C (dose: 100.0 mg/kg/injection, schedule: Q01DX009 (ip), vehicle: saline) was 86 % of control.
In the case of `COC(=O)C1CC(O)CC(C(=O)OC)O1` (stereo not drawn), the T/C [2] is reported as 96 % of control and the T/C (dose: 120.0 mg/kg/injection, schedule: Q01DX005 (ip), vehicle: saline) is reported as 90 % of control.
For `Cc1ccc2c(c1)C(O)(CC(=O)c1ccccn1)C(=O)N2` (stereo not drawn), the T/C [1] was 104 % of control, the T/C (dose: 120.0 mg/kg/injection, schedule: Q01DX005 (ip), vehicle: Klucel (hydroxypropylcellulose) (HPC)) was 97 % of control and the T/C (dose: 240.0 mg/kg/injection, schedule: Q01DX005 (ip), vehicle: Klucel (hydroxypropylcellulose) (HPC)) was 104 % of control.
In the case of `CCCCCCCCCCC(O)C1CCC(C2CCC(C(O)C(=O)CCCCCCCCCCCC3CC(C)OC3=O)O2)O1` (stereo not drawn), the T/C (dose: 0.35 mg/kg/injection, schedule: Q01DX005 (ip), vehicle: Klucel (hydroxypropylcellulose) (HPC)) is reported as 107 % of control and 115 % of control, the T/C (dose: 0.7 mg/kg/injection, schedule: Q01DX005 (ip), vehicle: Klucel (hydroxypropylcellulose) (HPC)) is reported as 112 % of control and 119 % of control and the T/C (dose: 1.4 mg/kg/injection, schedule: Q01DX005 (ip), vehicle: Klucel (hydroxypropylcellulose) (HPC)) is reported as 120 % of control.
For `NC(N)=NS(=O)(=O)c1ccc(N=NC2=C(O)C(c3ccccc3)N(c3ccccc3)C2=O)cc1` (stereo not drawn), the T/C (dose: 100.0 mg/kg/injection, schedule: Q01DX001 (ip), vehicle: saline with Tween-80) was 102 % of control, the T/C (dose: 200.0 mg/kg/injection, schedule: Q01DX001 (ip), vehicle: saline with Tween-80) was 102 % of control and the T/C (dose: 400.0 mg/kg/injection, schedule: Q01DX001 (ip), vehicle: saline with Tween-80) was 90 % of control.
With `CC(C)Cn1c(Cl)c(/C=N\Nc2ccc([N+](=O)[O-])cc2)c2ccccc21` the T/C (dose: 12.5 mg/kg/injection, schedule: Q01DX001 (ip), vehicle: saline) was 94 % of control, the T/C (dose: 25.0 mg/kg/injection, schedule: Q01DX001 (ip), vehicle: saline) was 88 % of control and the T/C (dose: 50.0 mg/kg/injection, schedule: Q01DX001 (ip), vehicle: saline) was 96 % of control.
With `CC(C)(C)Oc1ccc(CC(NC(=O)OCC2c3ccccc3-c3ccccc32)C(=O)O)cc1` (stereo not drawn) the T/C (dose: 25.0 mg/kg/injection, schedule: Q01DX005 (ip), vehicle: Klucel (hydroxypropylcellulose) (HPC)) was 107 % of control, the T/C (dose: 50.0 mg/kg/injection, schedule: Q01DX005 (ip), vehicle: Klucel (hydroxypropylcellulose) (HPC)) was 107 % of control and 109 % of control and the T/C (dose: 100.0 mg/kg/injection, schedule: Q01DX005 (ip), vehicle: Klucel (hydroxypropylcellulose) (HPC)) was 120 % of control. For the same compound, the T/C (dose: 200.0 mg/kg/injection, schedule: Q01DX005 (ip), vehicle: Klucel (hydroxypropylcellulose) (HPC)) was 104 % of control and 120 % of control.
